pIC50: −log10 of the molar value.
What was measured:
[1] = molecular target: T1, wild type LRRK2 overexpressed in recombinant HEK-293T cells (Homo sapiens, UniProt Q5S007); assay: pS935 LRRK2 Cell Assay (HTRF, phospho-LRRK2 Ser935); format: cell-based; details: LRRK2 Inhibition, Table 8, 2 hours compound incubation
T1 construct: host or cells: HEK293T (transient transfection with pCMV-LRRK2 WT plasmid)
Outline: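 HEK-293T cells transiently transfected with wild-type LRRK2 for 24 h, plated overnight, then treated 2 h at 37° C with compound (top 10 μM, 3-fold, 9 doses, duplicates, 0.2% DMSO). Lysates probed overnight at 23° C by sandwich HTRF for pSer935; 665/615 nm ratio read.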

[2] = molecular target: LRRK2 wild type enzyme (Homo sapiens, UniProt Q5S007); assay: Biochemical Assay: LRRK2 TR-FRET (LanthaScreen) kinase assay with LRRKtide substrate; details: LRRK2 Inhibition, Table 8
Outline: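 Human wild-type LRRK2 (3 nM) preincubated 15 min with compound (11-point, 3-fold, top 10 μM), then reacted 120 min at 23 °C with 400 nM LRRKtide and 25 μM ATP, pH 8.0. Stopped with EDTA; Tb-anti-pLRRKtide TR-FRET read after 30 min.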

Chain of LRRK2 wild type enzyme (Q5S007 whole entry): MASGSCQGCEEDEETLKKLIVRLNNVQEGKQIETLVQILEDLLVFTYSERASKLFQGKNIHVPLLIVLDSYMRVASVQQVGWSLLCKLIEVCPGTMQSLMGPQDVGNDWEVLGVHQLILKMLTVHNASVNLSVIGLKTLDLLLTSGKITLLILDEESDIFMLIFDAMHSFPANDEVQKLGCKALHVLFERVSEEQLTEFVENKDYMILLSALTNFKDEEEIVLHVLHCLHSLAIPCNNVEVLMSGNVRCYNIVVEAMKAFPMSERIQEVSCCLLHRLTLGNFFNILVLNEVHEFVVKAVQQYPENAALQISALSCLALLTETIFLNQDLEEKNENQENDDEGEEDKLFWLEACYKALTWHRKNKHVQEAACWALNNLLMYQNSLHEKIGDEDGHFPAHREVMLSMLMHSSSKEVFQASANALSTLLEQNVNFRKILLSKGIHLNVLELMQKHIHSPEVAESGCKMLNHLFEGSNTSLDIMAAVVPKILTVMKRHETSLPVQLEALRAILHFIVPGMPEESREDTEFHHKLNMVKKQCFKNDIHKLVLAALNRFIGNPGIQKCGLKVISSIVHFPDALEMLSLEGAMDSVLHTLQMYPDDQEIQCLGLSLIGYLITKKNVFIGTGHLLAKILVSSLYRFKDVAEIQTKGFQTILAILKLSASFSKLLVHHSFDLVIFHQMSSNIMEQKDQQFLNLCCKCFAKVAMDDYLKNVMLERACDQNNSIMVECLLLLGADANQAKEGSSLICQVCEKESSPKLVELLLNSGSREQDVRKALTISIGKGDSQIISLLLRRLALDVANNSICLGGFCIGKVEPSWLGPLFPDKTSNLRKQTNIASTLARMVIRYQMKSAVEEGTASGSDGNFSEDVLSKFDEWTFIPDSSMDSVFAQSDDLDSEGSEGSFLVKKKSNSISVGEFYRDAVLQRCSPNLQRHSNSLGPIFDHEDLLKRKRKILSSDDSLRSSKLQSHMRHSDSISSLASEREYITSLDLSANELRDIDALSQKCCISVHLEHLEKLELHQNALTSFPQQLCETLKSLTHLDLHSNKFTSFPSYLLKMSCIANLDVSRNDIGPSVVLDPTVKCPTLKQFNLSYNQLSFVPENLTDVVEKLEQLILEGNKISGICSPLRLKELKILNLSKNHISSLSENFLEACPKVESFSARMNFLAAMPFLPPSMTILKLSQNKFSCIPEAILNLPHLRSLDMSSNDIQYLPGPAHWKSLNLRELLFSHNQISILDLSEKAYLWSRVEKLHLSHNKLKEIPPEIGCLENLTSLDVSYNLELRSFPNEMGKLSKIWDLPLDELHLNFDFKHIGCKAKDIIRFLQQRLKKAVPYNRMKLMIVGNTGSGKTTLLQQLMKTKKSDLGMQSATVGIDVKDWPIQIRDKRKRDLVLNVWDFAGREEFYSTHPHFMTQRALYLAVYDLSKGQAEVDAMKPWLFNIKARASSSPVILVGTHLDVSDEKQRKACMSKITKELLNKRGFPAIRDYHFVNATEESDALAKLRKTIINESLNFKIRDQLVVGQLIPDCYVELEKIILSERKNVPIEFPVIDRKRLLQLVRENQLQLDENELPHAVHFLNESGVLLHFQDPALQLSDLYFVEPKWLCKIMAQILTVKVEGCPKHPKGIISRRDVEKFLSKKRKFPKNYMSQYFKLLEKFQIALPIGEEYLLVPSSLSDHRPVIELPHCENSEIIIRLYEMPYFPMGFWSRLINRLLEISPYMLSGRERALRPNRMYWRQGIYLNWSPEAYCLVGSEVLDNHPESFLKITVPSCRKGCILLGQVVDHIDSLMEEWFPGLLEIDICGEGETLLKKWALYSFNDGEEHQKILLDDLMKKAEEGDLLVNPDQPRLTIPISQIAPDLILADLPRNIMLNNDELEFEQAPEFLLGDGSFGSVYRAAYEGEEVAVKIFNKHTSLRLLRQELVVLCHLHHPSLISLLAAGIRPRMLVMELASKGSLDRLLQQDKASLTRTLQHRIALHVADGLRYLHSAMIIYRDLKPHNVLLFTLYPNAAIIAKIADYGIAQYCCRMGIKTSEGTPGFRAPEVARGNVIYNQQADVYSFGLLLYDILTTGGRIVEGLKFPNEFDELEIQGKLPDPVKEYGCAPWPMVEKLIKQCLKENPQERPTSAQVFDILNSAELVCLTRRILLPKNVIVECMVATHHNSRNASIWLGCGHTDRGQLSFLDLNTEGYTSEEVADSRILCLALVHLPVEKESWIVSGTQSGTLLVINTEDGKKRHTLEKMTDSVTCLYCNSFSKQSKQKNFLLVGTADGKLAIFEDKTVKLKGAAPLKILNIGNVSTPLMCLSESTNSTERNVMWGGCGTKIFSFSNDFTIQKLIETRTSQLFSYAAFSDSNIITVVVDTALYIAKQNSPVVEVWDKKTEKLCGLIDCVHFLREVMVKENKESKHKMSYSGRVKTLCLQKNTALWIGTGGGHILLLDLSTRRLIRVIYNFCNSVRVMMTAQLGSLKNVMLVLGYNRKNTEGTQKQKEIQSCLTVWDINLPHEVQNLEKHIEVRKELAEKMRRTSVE
T1 sequence (Q5S007 whole entry): as above

Structure (SMILES) | pIC50 [1] | pIC50 [2]
C[C@@H]1C[C@H](n2c(CC(=O)Nc3cn(C)c(C(F)(F)F)cc3=O)nc3cnc4ccc(C#N)cc4c32)CCO1 [Compound 232, N-[1-methyl-4-oxo-6-(trifluoromethyl)-1,4-dihydro-3-pyridyl]{3-[(2R,4R)-2-methyltetrahydro-2H-pyran-4-yl]-12-cyano-3,5,8-triazatricyclo[7.4.0.0^2,6]trideca-1,4,6,8,10,12-hexaen-4-yl}acetamide] | 7.43 | 9.10
C[C@@H]1C[C@H](n2c(CC(=O)NCC(F)(F)CO)nc3cnc4ccc(C#N)cc4c32)CCO1 [Compound 233, N-(2,2-difluoro-3-hydroxypropyl){3-[(2R,4R)-2-methyltetrahydro-2H-pyran-4-yl]-12-cyano-3,5,8-triazatricyclo[7.4.0.0^2,6]trideca-1,4,6,8,10,12-hexaen-4-yl}acetamide] | 6.61 | 9.08
C[C@@H]1C[C@H](n2c(CC(=O)Nc3cn(C)ccc3=O)nc3cnc4ccc(C#N)cc4c32)CCO1 [Compound 234, N-(1-methyl-4-oxo-1,4-dihydro-3-pyridyl){3-[(2R,4R)-2-methyltetrahydro-2H-pyran-4-yl]-12-cyano-3,5,8-triazatricyclo[7.4.0.0^2,6]trideca-1,4,6,8,10,12-hexaen-4-yl}acetamide] | 6.39 | 9.18
COc1cc(F)c(NC(=O)Cc2nc3cnc4ccc(C#N)cc4c3n2[C@@H]2CCO[C@H](C)C2)cn1 [Compound 235, N-(4-fluoro-6-methoxy-3-pyridyl){3-[(2R,4R)-2-methyltetrahydro-2H-pyran-4-yl]-12-cyano-3,5,8-triazatricyclo[7.4.0.0^2,6]trideca-1,4,6,8,10,12-hexaen-4-yl}acetamide] | 8.00 | 9.34
Cc1cc(C)c(NC(=O)Cc2nc3cnc4ccc(C#N)cc4c3n2[C@@H]2CCO[C@H](C)C2)cn1 [Compound 236, N-(4,6-dimethyl-3-pyridyl){3-[(2R,4R)-2-methyltetrahydro-2H-pyran-4-yl]-12-cyano-3,5,8-triazatricyclo[7.4.0.0^2,6]trideca-1,4,6,8,10,12-hexaen-4-yl}acetamide] | 8.13 | 9.45
Cc1c(NC(=O)Cc2nc3cnc4ccc(C#N)cc4c3n2[C@@H]2CCO[C@H](C)C2)cnn1C [Compound 237, N-(1-methyl-5-methyl-4-pyrazolyl){3-[(2R,4R)-2-methyltetrahydro-2H-pyran-4-yl]-12-cyano-3,5,8-triazatricyclo[7.4.0.0^2,6]trideca-1,4,6,8,10,12-hexaen-4-yl}acetamide] | 7.63 | 9.39
Cc1nocc1NC(=O)Cc1nc2cnc3ccc(C#N)cc3c2n1[C@@H]1CCO[C@H](C)C1 [Compound 238, N-(3-methyl-4-isoxazolyl){3-[(2R,4R)-2-methyltetrahydro-2H-pyran-4-yl]-12-cyano-3,5,8-triazatricyclo[7.4.0.0^2,6]trideca-1,4,6,8,10,12-hexaen-4-yl}acetamide] | 8.15 | 9.38
C[C@@H]1C[C@H](n2c(CC(=O)NCC(C)(C)C#N)nc3cnc4ccc(C#N)cc4c32)CCO1 [Compound 239, N-(2-cyano-2-methylpropyl){3-[(2R,4R)-2-methyltetrahydro-2H-pyran-4-yl]-12-cyano-3,5,8-triazatricyclo[7.4.0.0^2,6]trideca-1(9),2(6),4,7,10,12-hexaen-4-yl}acetamide] | 6.77 | 8.88
C[C@@H]1C[C@H](n2c(CC(=O)Nc3cccn(CC(C)(C)O)c3=O)nc3cnc4ccc(C#N)cc4c32)CCO1 [Compound 240, N-[1-(2-hydroxy-2-methylpropyl)-2-oxo-1,2-dihydro-3-pyridyl]{3-[(2R,4R)-2-methyltetrahydro-2H-pyran-4-yl]-12-cyano-3,5,8-triazatricyclo[7.4.0.0^2,6]trideca-1(9),2(6),4,7,10,12-hexaen-4-yl}acetamide] | 7.57 | 9.48
C[C@@H]1C[C@H](n2c(CC(=O)NCC(C)(C)CO)nc3cnc4ccc(C#N)cc4c32)CCO1 [Compound 241, N-(3-hydroxy-2,2-dimethylpropyl){3-[(2R,4R)-2-methyltetrahydro-2H-pyran-4-yl]-12-cyano-3,5,8-triazatricyclo[7.4.0.0^2,6]trideca-1(9),2(6),4,7,10,12-hexaen-4-yl}acetamide] | 7.11 | 9.00
C[C@@H]1C[C@H](n2c(CC(=O)NCC3(CO)CC3)nc3cnc4ccc(C#N)cc4c32)CCO1 [Compound 242, N-[1-(hydroxymethyl)cyclopropyl]methyl{3-[(2R,4R)-2-methyltetrahydro-2H-pyran-4-yl]-12-cyano-3,5,8-triazatricyclo[7.4.0.0^2,6]trideca-1(9),2(6),4,7,10,12-hexaen-4-yl}acetamide] | 6.97 | 9.16
COc1ncc(NC(=O)Cc2nc3cnc4ccc(C#N)cc4c3n2[C@@H]2CCO[C@H](C)C2)c(C)n1 [Compound 243, N-(2-methoxy-4-methyl-5-pyrimidinyl){3-[(2R,4R)-2-methyltetrahydro-2H-pyran-4-yl]-12-cyano-3,5,8-triazatricyclo[7.4.0.0^2,6]trideca-1(9),2(6),4,7,10,12-hexaen-4-yl}acetamide] | 7.94 | 9.25
Cc1nc2n(n1)CC(NC(=O)Cc1nc3cnc4ccc(C#N)cc4c3n1[C@@H]1CCO[C@H](C)C1)CC2 (stereo partly drawn) [Compound 244, N-(2-methyl-4,5,6,7-tetrahydro-1,3,3a-triaza-5-indenyl){3-[(2R,4R)-2-methyltetrahydro-2H-pyran-4-yl]-12-cyano-3,5,8-triazatricyclo[7.4.0.0^2,6]trideca-1,4,6,8,10,12-hexaen-4-yl}acetamide] | 5.58 | 8.86
C[C@@H]1C[C@H](n2c(CC(=O)N[C@@H]3C[C@H]3F)nc3cnc4ccc(C#N)cc4c32)CCO1 [Compound 246, N-[(1R,2R)-2-fluorocyclopropyl]{3-[(2R,4R)-2-methyltetrahydro-2H-pyran-4-yl]-12-cyano-3,5,8-triazatricyclo[7.4.0.0^2,6]trideca-1(13),2(6),4,7,9,11-hexaen-4-yl}acetamide] | 7.28 | 8.96
COc1ncnc(OC)c1NC(=O)Cc1nc2cnc3ccc(C#N)cc3c2n1[C@@H]1CCO[C@H](C)C1 [Compound 247, N-(4,6-dimethoxy-5-pyrimidinyl){3-[(2R,4R)-2-methyltetrahydro-2H-pyran-4-yl]-12-cyano-3,5,8-triazatricyclo[7.4.0.0^2,6]trideca-1(9),2(6),4,7,10,12-hexaen-4-yl}acetamide] | 8.39 | 9.46
COc1nc(C)ncc1NC(=O)Cc1nc2cnc3ccc(C#N)cc3c2n1[C@@H]1CCO[C@H](C)C1 [Compound 248, N-(4-methoxy-2-methyl-5-pyrimidinyl){3-[(2R,4R)-2-methyltetrahydro-2H-pyran-4-yl]-12-cyano-3,5,8-triazatricyclo[7.4.0.0^2,6]trideca-1(9),2(6),4,7,10,12-hexaen-4-yl}acetamide] | 8.38 | 9.40
C[C@@H]1C[C@H](n2c(CC(=O)NC3CC34CC4)nc3cnc4ccc(C#N)cc4c32)CCO1 (stereo partly drawn) [Compound 249, N-1-spiro[2.2]pentyl{3-[(2R,4R)-2-methyltetrahydro-2H-pyran-4-yl]-12-cyano-3,5,8-triazatricyclo[7.4.0.0^2,6]trideca-1(9),2(6),4,7,10,12-hexaen-4-yl}acetamide] | 7.76 | 9.16
COc1ccncc1NC(=O)Cc1nc2cnc3ccc(C#N)cc3c2n1[C@@H]1CCO[C@H](C)C1 [Compound 250, N-(4-methoxy-3-pyridyl){3-[(2R,4R)-2-methyltetrahydro-2H-pyran-4-yl]-12-cyano-3,5,8-triazatricyclo[7.4.0.0^2,6]trideca-1(9),2(6),4,7,10,12-hexaen-4-yl}acetamide] | 8.22 | 9.18
COc1ncncc1NC(=O)Cc1nc2cnc3ccc(C#N)cc3c2n1[C@@H]1CCO[C@H](C)C1 [Compound 251, N-(4-methoxy-5-pyrimidinyl){3-[(2R,4R)-2-methyltetrahydro-2H-pyran-4-yl]-12-cyano-3,5,8-triazatricyclo[7.4.0.0^2,6]trideca-1(9),2(6),4,7,10,12-hexaen-4-yl}acetamide] | 8.45 | 9.42
C[C@@H]1C[C@H](n2c(CC(=O)NC3CC3(C)C)nc3cnc4ccc(C#N)cc4c32)CCO1 (stereo partly drawn) [Compound 252, N-2,2-dimethylcyclopropyl{3-[(2R,4R)-2-methyltetrahydro-2H-pyran-4-yl]-12-cyano-3,5,8-triazatricyclo[7.4.0.0^2,6]trideca-1,4,6,8,10,12-hexaen-4-yl}acetamide] | 7.74 | 9.19
Cc1nc(C)c(NC(=O)Cc2nc3cnc4ccc(C#N)cc4c3n2[C@@H]2CCO[C@H](C)C2)c(C)n1 [Compound 253, N-(2,4,6-trimethyl-5-pyrimidinyl){3-[(2R,4R)-2-methyltetrahydro-2H-pyran-4-yl]-12-cyano-3,5,8-triazatricyclo[7.4.0.0^2,6]trideca-1,4,6,8,10,12-hexaen-4-yl}acetamide] | 7.59 | 9.27
C[C@@H]1C[C@H](n2c(CC(=O)Nc3cnc(C(F)F)nc3)nc3cnc4ccc(C#N)cc4c32)CCO1 [Compound 254, N-[2-(difluoromethyl)-5-pyrimidinyl]{3-[(2R,4R)-2-methyltetrahydro-2H-pyran-4-yl]-12-cyano-3,5,8-triazatricyclo[7.4.0.0^2,6]trideca-1(9),2(6),4,7,10,12-hexaen-4-yl}acetamide] | 7.56 | 9.26

Reference: patent US20250270209A1 (INTERLINE THERAPEUTICS, INC., priority 2022, published 2025)
